For assay [1], the system named is Staphylococcus aureus. The experiment in a line: Antibacterial activity against Staphylococcus aureus ATCC 29213 at 100 ug/disk by agar disk diffusion assay. Type of assay: functional. To be noted: read-out: IZ.
Assay [2] concerns Bacillus subtilis. The experiment in a line: Antibacterial activity against Bacillus subtilis ATCC 6051 at 100 ug/disk by agar disk diffusion assay. It is filed as functional. To be noted: read-out: IZ. (In general: Agar diffusion results depend on both activity and mobility in agar.)
The test system of another assay is Candida albicans. The experiment in a line: Antimicrobial activity against Candida albicans ATCC 14053 at 100 ug/disk by agar disk diffusion assay. Type of assay: functional. To be noted: read-out: IZ.
The next assay has as its system Escherichia coli. As to the kind of experiment: Antibacterial activity against Escherichia coli ATCC 25922 at 100 ug/disk by agar disk diffusion assay. It is filed as functional. Particulars: read-out: IZ.
In assay [3] the test system is Aspergillus flavus. The experiment in a line: Antifungal activity against Aspergillus flavus NRRL 6541 up to 25 ug/ml by agar disk diffusion assay. Type of assay: functional, organism-based.
For assay [4], the system named is Aspergillus flavus. The experiment in a line: Antifungal activity against Aspergillus flavus NRRL 6541 by agar disk diffusion assay. It is filed as functional, organism-based.
Assay [5] relates to Fusarium verticillioides. As to the kind of experiment: Antifungal activity against Gibberella moniliformis NRRL 25457 by agar disk diffusion assay. Type of assay: functional, organism-based.
For assay [6], the system named is Fusarium verticillioides. The experiment in a line: Antifungal activity against Gibberella moniliformis NRRL 25457 at 200 ug/disk by agar disk diffusion assay. Type of assay: functional. Particulars: read-out: IZ.
For assay [7], the system named is Aspergillus flavus. The experiment in a line: Antifungal activity against Aspergillus flavus NRRL 6541 at 200 ug/disk by agar disk diffusion assay. It is filed as functional. To be noted: read-out: IZ.
For assay [8], the system named is Bacillus subtilis. The experiment in a line: Antibacterial activity against Bacillus subtilis ATCC 6051 at 25 ug/disk by agar disk diffusion assay. Type of assay: functional, organism-based.
Assay [9] relates to Staphylococcus aureus. As to the kind of experiment: Antibacterial activity against Staphylococcus aureus ATCC 29213 at 25 ug/disk by agar disk diffusion assay. It is filed as functional, organism-based.

≈ marks a conversion by molar mass, not a printed value. Calls of active or inactive are those of the source.

From ChEMBL document CHEMBL1764972, “Phomalevones A-C: dimeric and pseudodimeric polyketides from a fungicolous Hawaiian isolate of Phoma sp. (Cucurbitariaceae)” (J Nat Prod, 2011) come the findings set out here.

For the compound `Cc1cc2c(c(O)c1-c1c(C)cc3c(c1O)C(=O)C1=C(O)C=C[C@H](O)[C@]1(C)O3)C(=O)C1=C(O)C=C[C@H](O)[C@]1(C)O2` [PHOMALEVONE A], the zone of inhibition at 100 µg/disc amounted to 23 mm in the assay with Staphylococcus aureus [1] and 36 mm in the assay on Bacillus subtilis [2].
Take `Cc1cc(O)c(C(=O)c2c(O)ccc(O)c2C)c(O)c1-c1c(C)cc(O)c(C(=O)c2c(O)ccc(O)c2C)c1O` [PHOMALEVONE B]: the zone of inhibition at 100 µg/disc amounted to 26 mm in the assay on Staphylococcus aureus [1], 18 mm with Candida albicans, 18 mm in the assay with Escherichia coli and 38 mm with Bacillus subtilis [2].
For `Cc1cc2c(c(O)c1-c1c(C)cc3c(c1O)C(=O)C1=C(O)C=C[C@H](O)[C@]1(C)O3)C(=O)C1=C(O)C=CC(=O)[C@]1(C)O2` [PHOMALEVONE C], the figures for the zone of inhibition at 100 µg/disc in the assay with Staphylococcus aureus [1] and in the assay on Bacillus subtilis [2] were 22 mm and 34 mm, respectively. For the same compound, the result in the assay on Aspergillus flavus [3] was inactive. In the assay with Aspergillus flavus [4], it took 4 µg/mL (≈ 7.35 µM) to reach half-maximal inhibition (IC50). Further, the MIC – broadly, the smallest concentration in the dilution series that meets the test's criterion for growth inhibition – against Fusarium verticillioides [5] came out at 10 µg/mL (≈ 18.4 µM). The zone of inhibition at 200 µg/disc in the assay with Fusarium verticillioides [6] and in the assay on Aspergillus flavus [7] was 10 mm in each case.
Turning to GENTAMICIN SULFATE, the inhibition zone (IZ) in the assay with Bacillus subtilis [8] and in the assay on Staphylococcus aureus [9] was 20 mm throughout.
As to NYSTATIN, the minimal inhibitory concentration (MIC) against Aspergillus flavus [4] and in the assay on Fusarium verticillioides [5] was 10 µg/mL in each case.
